Drawing on the Bradley open melting point set (2014), this text covers melting point for 85 molecules.

Where “and” joins values, the source holds several entries; their conditions need not be identical. Equal values may be shown once.

As usually defined, the melting point is the temperature, or range, at which the solid turns liquid. `CCOC(=O)c1cc(-c2ccco2)n[nH]1` [ethyl 3-(2-furyl)-1h-pyrazole-5-carboxylate] registered a melting point of 136 °C.

`O=C(O)Cc1nn(Cc2nc3cc(C(F)(F)F)ccc3s2)c(=O)c2ccccc12` [zopolrestat] showed a melting point of 197 °C.

On to `Nc1ccc(Cl)c(Cl)c1` [3,4-dichloroaniline], for which the melting point turned out to be 72 °C.

As for `C#CCCCCCCCCCC` [1-dodecyne], the melting point was -19 °C.

In the case of `CCCCOC(=O)c1ccc(O)cc1` [butylparaben], the melting point stood at 68.5 °C.

`CC(=O)N/C=C/c1ccccc1[N+](=O)[O-]` [N-[(E)-2-(2-nitrophenyl)ethenyl]acetamide] showed a melting point of 150 °C.

In the case of `O=C(O)C(c1ccccc1)c1ccccc1` [diphenylacetic acid], the melting point came to 147 °C.

Molecule `Cc1cc(C)c(N=C=S)c(C)c1` [2,4,6-trimethylphenyl isothiocyanate] registered a melting point of 62 °C.

In turn, `COC(=O)c1ccc(C(C)=O)cc1` [methyl 4-acetylbenzoate] came in with a melting point of 86 °C.

Molecule `C=C(C)Cn1c(N)cc(=O)n(C)c1=O` [Uracil, 6-amino-3-methyl-1- (2-methylallyl)-] registered a melting point of 175 °C.

Molecule `CC(=O)Nc1ccc(Br)c(Cl)c1` [4'-bromo-3'-chloroacetanilide] showed a melting point of 124 °C.

The molecule `O=Cc1cc(Br)cc(Br)c1` [3,5-dibromobenzaldehyde] showed a melting point of 91 °C.

Regarding `O=C1CCSCC1` [tetrahydro-4h-thiopyran-4-one], the melting point amounted to 62 °C.

In turn, `Nc1ccc(C=C/C(=N/O)c2ccccc2)cc1` [4-[(3Z)-3-(hydroxyimino)-3-phenylprop-1-en-1-yl]aniline] gave a melting point of 139 °C.

Regarding `O=C1CCCCCO1` [epsilon-caprolactone], the melting point is -2 °C.

With `CCOC(=O)C1=CN=NC1C` (stereo not given) [ethyl 3-methyl-1H-pyrazole-4-carboxylate], the melting point is 137 °C.

For `Cc1ccc(S(=O)(=O)OCCCOS(=O)(=O)c2ccc(C)cc2)cc1` [1,3-propanediol di-p-toluenesulfonate], the melting point amounted to 91 °C.

With `CCC(C)=O` [2-butanone], the melting point was -87 °C.

Molecule `O=C(O)C(Cl)Cl` [dichloroacetic acid] had a melting point of 10 °C.

`O=C5\C=C3/[C@]([C@H]2CC[C@@]4([C@@H](OC(=O)CCc1ccccc1)CC[C@H]4[C@@H]2CC3)C)(C)CC5` [testosterone phenylpropionate] showed a melting point of 116 °C.

In turn, `CCCCCCCCCC(=O)O` [Decanoic acid] yielded a melting point of 31 °C.

Regarding `C[Si](Cl)(Cl)Cl` [methyltrichlorosilane], the melting point is -78 °C.

In the case of `OC(c1ccccc1)(c1ccccc1)C(O)(c1ccccc1)c1ccccc1` [1,1,2,2-Tetraphenylethane-1,2-diol], the melting point worked out at 171 °C.

`COC1=CC(=O)C=C(OC)C1=O` [2,6-dimethoxy-p-benzoquinone]: the melting point worked out at 255 °C.

Turning to `O=C1C=CC(=O)c2ccccc21` [1,4-Naphthoquinone], the melting point was 126 °C.

Molecule `Nc1ccc(F)cc1[N+](=O)[O-]` [4-fluoro-2-nitroaniline] had a melting point of 92 °C.

The molecule `O=Cc1ccc(F)c(B(O)O)c1` [2-fluoro-5-formylbenzeneboronic acid] came in with a melting point of 170 °C.

Molecule `CC(=O)OC1=CC(c2ccccc2)c2ccccc21` (stereo not given) [1-phenyl-1H-inden-3-yl acetate] showed a melting point of 56 °C.

`CC1(O)CCCC1` [1-methylcyclopentanol] yielded a melting point of 37 °C.

`Cc1c(N)cccc1N` [2,6-diaminotoluene] gave a melting point of 97 °C.

As for `CCCCCC(=O)CCCCC` [6-undecanone], the melting point stood at 15 °C.

As to `COc1ccc(N=C=S)cc1` [4-methoxyphenyl isothiocyanate], the melting point was determined as 19 °C.

As to `CCOC(=O)C1=CC(C)N=N1` (stereo not given) [Ethyl 5-methyl-1H-pyrazole-3-carboxylate], the melting point is 82 °C.

`O=C(Nc1ccc2cc(OC(=O)c3ccccc3)ccc2c1)c1ccccc1` [6-[(phenylcarbonyl)amino]naphthalen-2-yl benzoate] displayed a melting point of 227 °C.

Turning to `NNC(=O)NN` [Carbonohydrazide], the melting point stood at 158 °C.

In turn, `Cc1cc(C(O)=NCC(=N)O)c(C)n1-c1ccc(F)cc1` [OSM-S-19] showed a melting point of 194 °C.

The molecule `Cc1ccc(S(=O)(=O)OC[C@@H]2OC(C)(C)O[C@H]2COS(=O)(=O)c2ccc(C)cc2)cc1` [1,4-di-o-tosyl-2,3-o-isopropylidene-l-threitol] had a melting point of 90 °C.

In turn, `CCOC(=O)/C=C/c1ccccc1N` [Ethyl (2E)-3-(2-aminophenyl)acrylate] had a melting point of 77 °C.

On to `Cc1ccc(N2C(=O)C=CC2=O)cc1Cl` [N-(3-chloro-4-methylphenyl)maleimide], for which the melting point was found to be 146 °C.

In the case of `Cc1cc(C(=O)NCCc2ccc(S(=O)(=O)NC(=O)NN3CCCCCC3)cc2)no1` [glisoxepid], the melting point worked out at 189 °C.

Turning to `CC1(C)CC(=O)CC(=O)C1` [dimedone], the melting point stood at 148 °C.

Molecule `Cc1ccc(Cl)cc1[N+](=O)[O-]` [4-chloro-2-nitrotoluene] showed a melting point of 39 °C.

Take `O=C1c2ccccc2C(=O)N1CBr` [N-(bromomethyl)phthalimide]: the melting point was determined as 147 °C.

In turn, `C[Si]1(C)O[Si](C)(C)O[Si](C)(C)O1` [hexamethylcyclotrisiloxane] showed a melting point of 65 °C.

Molecule `Cc1ccc(C(=O)O)cc1` [4-Methylbenzoic acid] came in with a melting point of 181 °C.

For `Oc1ccc(F)cc1` [4-fluorophenol], the melting point was 46 °C.

In turn, `COC(=O)c1cc(OC)c(O)c(OC)c1` [methyl 3,5-dimethoxy-4-hydroxybenzoate] gave a melting point of 106 °C.

Regarding `N#Cc1c(N)sc2c1CCCC2` [2-amino-4,5,6,7-tetrahydrobenzo[b]thiophene-3-carbonitrile], the melting point was found to be 143 °C.

As to `Cc1cccc(C(=O)O)c1` [3-Methylbenzoic acid], the melting point was found to be 110 °C.

Take `O=c1c(-c2ccccc2)c1-c1ccccc1` [2,3-diphenyl-2-cyclopropen-1-one]: the melting point was 120 °C.

Take `ClC1=C(Cl)[C@]2(Cl)[C@@H]3[C@@H]4C[C@@H]([C@H]5O[C@@H]45)[C@@H]3[C@@]1(Cl)C2(Cl)Cl`: the melting point was 176 °C.

`Cc1ccc(CC#N)cc1` [p-tolylacetonitrile] came in with a melting point of 18 °C.

Take `COC(=O)c1ccc(N)cc1` [methyl p-aminobenzoate]: the melting point was found to be 114 °C.

Molecule `C=Cc1ccccc1B(O)O` [2-vinylbenzeneboronic acid] returned a melting point of 106 °C.

`CCOC(=O)/C=C/N(C)C` [ethyl 3-(dimethylamino)acrylate] had a melting point of 18 °C.

Turning to `CC(CCc1oc2ccc(C)cc2c1-c1ccc(C)o1)=NO`, the melting point was 104 °C.

In the case of `COc1ccc(B(O)O)cc1` [4-methoxybenzeneboronic acid], the melting point is 205 °C.

Turning to `N#Cc1c(OCC(F)(F)F)cccc1OCC(F)(F)F` [2,6-bis(2,2,2-trifluoroethoxy)benzonitrile], the melting point came out at 116 °C.

For the molecule `CCOC(=O)c1cccc(C#N)c1` [ethyl_m-cyanobenzoate], the melting point came to 56 °C.

Regarding `O=C1CCCCC1` [Cyclohexanone], the melting point is -32 °C and -31 °C.

Consider `CCCC(C)C1(CC)C(=O)NC(=O)NC1=O` (stereo not given) [pentobarbital], for which the melting point came to 130 °C.

As to `COc1nc(N)nc(SC)n1` [2-amino-4-methoxy-6-(methylthio)-1,3,5-triazine], the melting point amounted to 201 °C.

Take `OCc1ccccn1` [2-pyridinemethanol]: the melting point is -6 °C.

The molecule `O=C1OC(=O)C2C1C1(Cl)C(Cl)=C(Cl)C2(Cl)C1(Cl)Cl` (stereo not given) [chlorendic anhydride] returned a melting point of 237 °C.

`NS(=O)(=O)c1c(Cl)cc(Cl)cc1Cl` [2,4,6-trichlorobenzenesulfonamide] came in with a melting point of 180 °C.

Regarding `Cc1ccc(C(C)(C)C)cc1` [4-tert-butyltoluene], the melting point is -63 °C.

`Oc1cccc(Nc2ccccc2)c1` [3-Anilinophenol] had a melting point of 81.5 °C.

For the molecule `OB(O)c1cnc(OCc2ccccc2)nc1OCc1ccccc1` [2,4-dibenzyloxypyrimidine-5-boronic acid], the melting point came out at 90 °C.

In the case of `CC12CCC3C(CCC4CC(CC(=O)O)=CCC43C)C1CCC2=O` (stereo not given) [(17-oxoandrost-2-en-3-yl)acetic acid], the melting point was 177 °C.

`CC(=O)Oc1cccc(C(=O)O)c1` [m-acetoxy_benzoic_acid] returned a melting point of 133 °C.

Regarding `O=[N+]([O-])c1ccc(/N=N/c2c(O)ccc3ccccc23)cc1` [1-[(E)-(4-Nitrophenyl)diazenyl]-2-naphthol], the melting point was determined as 250 °C.

For `Nc1cccc(Cl)c1` [3-chloroaniline], the melting point is -10 °C.

With `COc1ccccc1[N+](=O)[O-]` [o-nitroanisole], the melting point was determined as 10 °C.

`c1csc(P(c2cccs2)c2cccs2)c1` [tris(2-thienyl)phosphine] registered a melting point of 29 °C.

With `NS(=O)(=O)c1cc2c(cc1C(F)(F)F)NCNS2(=O)=O` [hydroflumethiazide], the melting point was determined as 272 °C.

The molecule `O=[N+]([O-])c1cccc2ccccc12` [1-Nitronaphthalene] displayed a melting point of 62 °C.

For the molecule `COC(=O)c1cc(F)ccc1N` [methyl 2-amino-5-fluorobenzoate], the melting point amounted to 23 °C.

For the molecule `COc1ccc(-c2csc(/C(C#N)=N/Nc3ccc(C)cc3)n2)cc1`, the melting point is 152 °C.

In the case of `CC(C)CCCC(C)C1CCC2C3CC(O)C4(O)CC(O)CCC4(C)C3CCC12C` (stereo not given), the melting point was 238 °C.

With `CCCCCCCCCCS` [1-decanethiol], the melting point is -26 °C.

The molecule `CC(C)CB(O)O` [isobutylboronic acid] returned a melting point of 109 °C.

On to `ClC(Cl)(Cl)Cl` [Tetrachloromethane], for which the melting point is -23 °C.

For `Cn1cc[nH]c1=S` [methimazole], the melting point is 146 °C (4×) and 147 °C.

For the molecule `OCCCCC(O)CO` (stereo not given) [1,2,6-hexanetriol], the melting point is -20 °C.

In the case of `OC(COc1ccccc1)COc1ccccc1` [1,3-diphenoxy-2-propanol], the melting point is 82 °C.
